# Reference: patent US6939854B2, “Peptide inhibitors of hepatitis C virus NS3 protease” (priority 2000, dated 2005)
# Target: T1, Human neutrophil elastase (Homo sapiens, UniProt P08246)
# T1 construct: purchased ART Biochemicals, Athens, Ga
# T1 sequence (P08246 30-267): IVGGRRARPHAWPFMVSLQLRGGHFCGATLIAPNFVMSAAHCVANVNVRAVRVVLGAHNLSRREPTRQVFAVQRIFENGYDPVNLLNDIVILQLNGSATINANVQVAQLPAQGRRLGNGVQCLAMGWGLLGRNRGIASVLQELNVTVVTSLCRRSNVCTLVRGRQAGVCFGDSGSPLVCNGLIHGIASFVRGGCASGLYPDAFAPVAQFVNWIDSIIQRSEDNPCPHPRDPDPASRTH
# Test: Inhibitory selectivity of HCV NS3 protease over elastase (human neutrophil elastase assay)
# Format: biochemical
# Conditions: IC50 (elastase) divided by IC50 (HCV NS3)
# Protocol: Selectivity of HCV NS3 over elastase can be calculated by dividing IC50 (elastase) over IC50 (HCV NS3). Similarily, selectivity of HCV NS3 over chymotrypsin can be calculated by dividing IC50 (chymotrypsin) over IC50 (HCV NS3).
# Human neutrophil elastase was obtained from ART Biochemicals, Athens, Ga. Stock solutions of lyophilized enzyme (1 mg/ml) were prepared in PBS buffer containing 10% glycerol and stored at −20 ° C. Human neutrophil elastase was assayed with the Meo-Suc-Ala-Ala-Pro-Val-p-nitroanilide (Sigma) as a substrate (C. Kettner and A. Shenvi, 1984). The hydrolysis of substrate was monitored at 405 nm on a Hewlett-Packard spectrophotometer.
row,Compound,Selectivity of HCV NS3 vs. elastase
1,H-Asp-Glu-Val-Val-Pro-(1R)-1-amino-3-(4-methyl)phenylpropylboronic acid (+)-pinanediol ester [Example 10],>10
2,H-Asp-Glu-Val-Val-Pro-(1R)-1-amino-3-phenylpropylboronic acid (+)-pinanediol ester [Example 3],>10
3,H-Asp-Glu-Val-Val-Pro-(1R)-1-amino-3-(4-bromo)phenylpropylboronic acid (+)-pinanediol ester [Example 23],>10
4,H-Asp-Glu-Val-Val-Pro-(1R)-1-amino-3-(4-phenoxy)phenylpropylboronic acid (+)-pinanediol ester [Example 17],>10
5,H-Asp-Glu-Val-Val-Pro-(1R)-1-amino-5-methylhexylboronic acid (+)-pinanediol ester [Example 36],>10
6,"CC(C)[C@H](NC(=O)c1cnccn1)C(=O)N[C@H](C(=O)N1C[C@H](OCc2ccccc2)C[C@H]1C(=O)N[C@@H](CCc1ccc(C(F)(F)F)cc1)B1OC2CC3CC(C3(C)C)C2(C)O1)C(C)C (stereo partly drawn) [Example 34, (2-pyrazinecarbonyl)-Val-Val-Hyp(OBzl)-(1R)-1-amino-3-(4-trifluoromethyl)phenylpropylboronic acid (+)-pinanediol ester]",7
7,"H-Asp-Glu-Val-Val-Pro-(1R)-1-amino-3-(1,1′-biphenyl)-4-ylpropylboronic acid (+)-pinanediol ester [Example 11]",>10
8,H-Asp-Glu-Val-Val-Pro-(1R)-1-amino-3-(4-chloro)phenylpropylboronic acid (+)-pinanediol ester [Example 22],>10
9,H-Asp-Glu-Val-Val-Pro-(1R)-1-amino-3-(4-hydroxy)phenylpropylboronic acid (+)-pinanediol ester [Example 27],>10
10,H-Asp-Glu-Val-Val-Pro-(1R)-1-amino-3-(4-methoxy)phenylpropylboronic acid (+)-pinanediol ester [Example 21],>10
11,H-Asp-Glu-Val-Val-Pro-(1R)-1-amino-3-(4-trifluoromethyl)phenylpropylboronic acid (+)-pinanediol ester [Example 14],>10
12,H-Asp-Glu-Val-Val-Pro-(1R)-1-amino-3-(4-tert-butyl)phenylpropylboronic acid (+)-pinanediol ester [Example 20],>10
13,H-Asp-Glu-Val-Val-Pro-(1R)-1-amino-5-phenylpentylboronic acid (+)-pinanediol ester [Example 5],9
14,H-Asp-Glu-Val-Val-Pro-(1R)-1-amino-3-(4-fluoro)phenylpropylboronic acid (+)-pinanediol ester [Example 16],>10
15,H-Asp-Glu-Val-Val-Pro-(1R)-1-amino-3-(3-methyl)phenylpropylboronic acid (+)-pinanediol ester [Example 9],>10
16,H-Asp-Glu-Val-Val-Pro-(1R)-1-amino-3-(4-isopropyl)phenylpropylboronic acid (+)-pinanediol ester [Example 18],>10
17,H-Asp-Glu-Val-Val-Pro-(1R)-1-amino-3-(4-cyclohexyl)phenylpropylboronic acid (+)-pinanediol ester [Example 19],>10
